These results are taken from publication PMC7350133 (Heliyon, 2020).

Assay [1] is described as follows: ABTS free radical scavenging assay. Particulars: mean ± SD (n = 3).
Assay [2] is described as follows: DPPH free radical scavenging assay. As to conditions: mean ± SD (n = 3). For orientation: DPPH is a stable violet radical that fades when it is reduced.
Assay [3] concerns yeast alpha glucosidase enzyme. Particulars: ref Gong et al., 2017, Peng et al., 2016, Rouzbehan et al.; cited from earlier work.
Assay [4] deals with alpha glucosidase. As to conditions: cited from earlier work.

The structures appear in SMILES notation. Read-outs that look alike come from different tables or passages of the source.

On to `O=C1O[C@H]([C@@H](O)CO)C(O)=C1O` [Ascorbic acid], for which the “Antioxidant activity (IC50 in μg/mL) ABTS Assay” value in assay [1] was determined as 3.9 ± 0.2 µg/mL. Also, the “Antioxidant activity (IC50 in μg/mL) DPPH Assay” value in assay [2] was 5.1 ± 0.1 µg/mL.
Turning to `O=c1c(O)c(-c2ccc(O)cc2)oc2cc(O)cc(O)c12` [kaempferol], the type of inhibition entry in assay [3] is reported as “mixed type”.
For `C[C@H]1O[C@H](O[C@H]2[C@H](O)[C@@H](O)[C@@H](O[C@H]3[C@H](O)[C@@H](O)C(O)O[C@@H]3CO)O[C@@H]2CO)[C@H](O)[C@@H](O)[C@@H]1N[C@H]1C=C(CO)[C@@H](O)[C@H](O)[C@H]1O` (stereo partly shown) [Acarbose, acarbose], the type of inhibition entry in assay [3] is given as “competitive”.
Take `O=c1c2cc(O)c(O)cc2oc2cc(O)cc(O)c12` [norathyriol]: the “AGI IC50” value in assay [4] (ref Gu et al., 2019) was 4.22 ± 0.19 µg/mL.
With `COc1ccc([C@@H]2CC(=O)c3c(O)cc(O)cc3O2)cc1O` [hesperetin], the type of inhibition entry in assay [3] is on record as “mixed type”.
On to `C/C=C(\C)CC/C=C(\C)C(=O)OCC(C)(C)CC1=C(O)C(=O)c2ccccc2C1=O` [rhinacanthin C], for which the “AGI IC50” value in assay [4] (ref Shah et al., 2017) is 22.6 ± 0.6 µg/mL.
